Legend:
[1] = system: PA1 (ECACC, 90013101) cells; assay: Cell viability assay (Cell Titre Glo, 72 hours) in PA1 cells; format: cell-based; conditions: Homo sapiens, PA-1
Method: (§1) Example 31: Cell Viability Assays
(§2) Phthalazinone based modulators as described herein were dispensed into 384 well CulturPlates™ (PerkinElmer) using Echo 555 acoustic dispensing in 10-point dose response curves at a final top concentration of 30 μM following a 1 in 3 dilution series. A2058 (ATCC, CRL-11147) or PA1 (ECACC, 90013101) cells were added directly to a compound at a density of 5000 cells per well in a final volume of 50 μL and incubated for 72 hours at 37° C., 5% CO2. Viability was assessed using Cell Titre Glo® (Promega) according to the manufacturer's instructions (25 μL per well) and IC50 curves were generated for each inhibitor using IDBS ActivityBase data analysis software.

[2] = system: A2058 (ATCC, CRL-11147) cells; assay: Cell viability assay (Cell Titre Glo, 72 hours) in A2058 cells; format: cell-based; conditions: Homo sapiens
Method: as §1, §2

Structure (SMILES)	IC50 [1]	IC50 [2]
Cn1nc(C(=O)N2CCN(c3ccncc3)CC2)c2ccccc2c1=O [Compound 28]	> 20 µM	> 20 µM
COc1ccc(N2CCN(C(=O)c3nn(C)c(=O)c4ccccc34)CC2)cc1 [Compound 29]	> 20 µM	> 20 µM
Cn1nc(C(=O)N2CCN(c3ccccc3F)CC2)c2ccccc2c1=O [Compound 30]	1 to 10 µM	1 to 10 µM
Cn1nc(C(=O)N2CCN(c3ccccn3)CC2)c2ccccc2c1=O [Compound 31]	> 20 µM	> 20 µM
Cn1nc(C(=O)N2CCN(c3cccnc3)CC2)c2ccccc2c1=O [Compound 32]	> 20 µM	> 20 µM
Cn1nc(C(=O)N2CCN(c3cccc(F)c3)CC2)c2ccccc2c1=O [Compound 33]	≤ 1 µM	≤ 1 µM
COc1cc(F)cc(N2CCN(C(=O)c3nn(C)c(=O)c4ccccc34)CC2)c1 [Compound 34, 4-(4-(3-fluoro-5-methoxyphenyl)piperazine-1-carbonyl)-2-methylphthalazin-1(2H)-one]	≤ 1 µM	≤ 1 µM
COc1cncc(N2CCN(C(=O)c3nn(C)c(=O)c4ccccc34)CC2)c1 [Compound 35]	1 to 10 µM	1 to 10 µM
COc1cc(N2CCN(C(=O)c3nn(C)c(=O)c4ccccc34)CC2)ccn1 [Compound 36]	> 20 µM	> 20 µM
COc1ccncc1N1CCN(C(=O)c2nn(C)c(=O)c3ccccc23)CC1 [Compound 37]	≤ 1 µM	≤ 1 µM
Cn1nc(C(=O)N2CCN(c3cncc(F)c3)CC2)c2ccccc2c1=O [Compound 38]	1 to 10 µM	10 to 20 µM
Cn1nc(C(=O)N2CCN(c3cncnc3C3CC3)CC2)c2ccccc2c1=O [Compound 40]	1 to 10 µM	1 to 10 µM
Cn1nc(C(=O)N2CCN(c3cccc(C4CC4)c3)CC2)c2ccccc2c1=O [Compound 41]	≤ 1 µM	≤ 1 µM
CCOc1ccccc1N1CCN(C(=O)c2nn(C)c(=O)c3ccccc23)CC1 [Compound 42]	≤ 1 µM	≤ 1 µM
Cn1nc(C(=O)N2CCN(c3ccc(F)c(F)c3)CC2)c2ccccc2c1=O [Compound 43]	1 to 10 µM	1 to 10 µM
COc1ccc(F)c(N2CCN(C(=O)c3nn(C)c(=O)c4ccccc34)CC2)c1 [Compound 44]	≤ 1 µM	≤ 1 µM
Cn1nc(C(=O)N2CCN(c3cc(F)cc(Cl)c3)CC2)c2ccccc2c1=O [Compound 45]	≤ 1 µM	≤ 1 µM
Cn1nc(C(=O)N2CCN(c3ccc(C#N)cc3)CC2)c2ccccc2c1=O [Compound 46]	1 to 10 µM	1 to 10 µM
Cn1nc(C(=O)N2CCN(c3cccc(Cl)c3)CC2)c2ccccc2c1=O [Compound 47]	≤ 1 µM	≤ 1 µM
CCOc1ccc(F)cc1N1CCN(C(=O)c2nn(C)c(=O)c3ccccc23)CC1 [Compound 48]	≤ 1 µM	≤ 1 µM
Cn1nc(C(=O)N2CCN(c3cccc(C#N)c3)CC2)c2ccccc2c1=O [Compound 49]	≤ 1 µM	≤ 1 µM
COc1cccc(N2CCN(C(=O)c3nn(C)c(=O)c4ccccc34)CC2)c1 [Compound 50]	≤ 1 µM	≤ 1 µM
Cn1nc(C(=O)N2CCN(c3ccc4c(c3)OCC4)CC2)c2ccccc2c1=O [Compound 51]	10 to 20 µM	> 20 µM
Cn1nc(C(=O)N2CCN(c3cccc4c3OCC4)CC2)c2ccccc2c1=O [Compound 52]	≤ 1 µM	≤ 1 µM
Cc1nc2c(N3CCN(C(=O)c4nn(C)c(=O)c5ccccc45)CC3)cccc2o1 [Compound 53]	1 to 10 µM	1 to 10 µM

Structure (SMILES)	IC50 [1]	IC50 [2]
Cn1nc(C(=O)N2CCN(c3cc(F)cc(F)c3)CC2)c2ccccc2c1=O [Compound 54]	≤ 1 µM	≤ 1 µM
Cc1cc(N2CCN(C(=O)c3nn(C)c(=O)c4ccccc34)CC2)ccc1F [Compound 55]	10 to 20 µM	> 20 µM
COc1cc(F)c(F)cc1N1CCN(C(=O)c2nn(C)c(=O)c3ccccc23)CC1 [Compound 56]	≤ 1 µM	≤ 1 µM
COc1cc(Cl)ccc1N1CCN(C(=O)c2nn(C)c(=O)c3ccccc23)CC1 [Compound 57]	≤ 1 µM	1 to 10 µM
CCOc1cc(F)ccc1N1CCN(C(=O)c2nn(C)c(=O)c3ccccc23)CC1 [Compound 58]	≤ 1 µM	1 to 10 µM
CC(C)Oc1cc(F)ccc1N1CCN(C(=O)c2nn(C)c(=O)c3ccccc23)CC1 [Compound 59]	1 to 10 µM	1 to 10 µM
Cn1nc(C(=O)N2CCN(c3ccc(F)cc3C3CC3)CC2)c2ccccc2c1=O [Compound 60]	≤ 1 µM	≤ 1 µM
Cn1nc(C(=O)N2CCN(c3cc(F)cc(C#N)c3)CC2)c2ccccc2c1=O [Compound 61, 3-fluoro-5-(4-(3-methyl-4-oxo-3,4-dihydrophthalazine-1-carbonyl)piperazin-1-yl)benzonitrile]	≤ 1 µM	≤ 1 µM
Cn1nc(C(=O)N2CCN(c3cc(C#N)ccc3C3CC3)CC2)c2ccccc2c1=O [Compound 62]	≤ 1 µM	≤ 1 µM
Cn1nc(C(=O)N2CCN(c3cncc(C(F)F)c3)CC2)c2ccccc2c1=O [Compound 63]	> 20 µM	> 20 µM
Cc1cc(C)nc(N2CCN(C(=O)c3nn(C)c(=O)c4ccccc34)CC2)n1 [Compound 64]	1 to 10 µM	> 20 µM
COCc1ccnc(N2CCN(C(=O)c3nn(C)c(=O)c4ccccc34)CC2)n1 [Compound 65]	> 20 µM	> 20 µM
CCc1ccncc1N1CCN(C(=O)c2nn(C)c(=O)c3ccccc23)CC1 [Compound 66]	≤ 1 µM	1 to 10 µM
Cc1ccc(C#N)cc1N1CCN(C(=O)c2nn(C)c(=O)c3ccccc23)CC1 [Compound 67]	≤ 1 µM	≤ 1 µM
Cc1cc(C#N)cc(N2CCN(C(=O)c3nn(C)c(=O)c4ccccc34)CC2)c1 [Compound 68]	≤ 1 µM	≤ 1 µM
Cn1nc(C(=O)N2CCN(c3cccc(S(C)(=O)=O)c3)CC2)c2ccccc2c1=O [Compound 69]	1 to 10 µM	1 to 10 µM
COc1ccc(C#N)cc1N1CCN(C(=O)c2nn(C)c(=O)c3ccccc23)CC1 [Compound 70]	≤ 1 µM	≤ 1 µM
Cn1nc(C(=O)N2CCN(c3ccncc3C3CC3)CC2)c2ccccc2c1=O [Compound 71]	≤ 1 µM	≤ 1 µM
COc1ccnc(N2CCN(C(=O)c3nn(C)c(=O)c4ccccc34)CC2)n1 [Compound 72]	1 to 10 µM	1 to 10 µM
Cc1cncc(N2CCN(C(=O)c3nn(C)c(=O)c4ccccc34)CC2)c1 [Compound 73]	1 to 10 µM	1 to 10 µM
Cc1cc(N2CCN(C(=O)c3nn(C)c(=O)c4ccccc34)CC2)ccn1 [Compound 74]	> 20 µM	> 20 µM
COc1ncc(F)cc1N1CCN(C(=O)c2nn(C)c(=O)c3ccccc23)CC1 [Compound 75]	≤ 1 µM	≤ 1 µM
Cn1nc(C(=O)N2CCN(c3ccnc(C4CC4)c3)CC2)c2ccccc2c1=O [Compound 76]	1 to 10 µM	10 to 20 µM
COc1ncc(C)cc1N1CCN(C(=O)c2nn(C)c(=O)c3ccccc23)CC1 [Compound 77]	1 to 10 µM	1 to 10 µM
COc1cnc(C)cc1N1CCN(C(=O)c2nn(C)c(=O)c3ccccc23)CC1 [Compound 78]	1 to 10 µM	1 to 10 µM

Source: patent publication US12465603B2, “Phthalazinone based modulators for the treatment of disease” (Soley Therapeutics, Inc., priority 2022, dated 2025)
